Experiments:
Type in all cases: in vivo
[1] = test system: Spodoptera littoralis (Egyptian cotton leaf worm); experiment: Spodoptera littoralis (Egyptian cotton leaf worm): Feeding/contact activity; conditions: foliar, 72 h, application rate of 200 ppm, L1 larvae on cotton leaf discs, assessed 3 days after infestation, read-out: control (mortality)
Protocol: Spodoptera littoralis (Egyptian cotton leaf worm): Feeding/contact activity Cotton leaf discs were placed onto agar in 24-well microtiter plates and sprayed with aqueous test solutions prepared from 10,000 ppm DMSO stock solutions. After drying the leaf discs were infested with five L1 larvae. The samples were assessed for mortality 3 days after infestation.

[2] = test system: Thrips tabaci (Onion Thrips); experiment: Thrips tabaci (Onion Thrips): Feeding/Contact activity; conditions: foliar, 144 h, application rate of 200 ppm, thrips population of mixed ages on sunflower leaf discs, assessed 6 days after infestation, read-out: control (mortality)
Protocol: Thrips tabaci (Onion Thrips): Feeding/Contact activity
Sunflower leaf discs were placed on agar in 24-well microtiter plates and sprayed with aqueous test solutions prepared from 10,000 ppm DMSO stock solutions. After drying the leaf discs were infested with a thrips population of mixed ages. The samples were assessed for mortality 6 days after infestation.

[3] = test system: Tetranychus urticae (Two-spotted spider mite); experiment: Tetranychus urticae (Two-spotted spider mite): Feeding/contact activity; conditions: foliar, 192 h, application rate of 200 ppm, mite population of mixed ages (mobile stages) on bean leaf discs, assessed 8 days after infestation, read-out: control (mortality)
Protocol: Tetranychus urticae (Two-spotted spider mite): Feeding/contact activity
Bean leaf discs on agar in 24-well microtiter plates were sprayed with aqueous test solutions prepared from 10,000 ppm DMSO stock solutions. After drying the leaf discs were infested with a mite population of mixed ages. The samples were assessed for mortality on mixed population (mobile stages) 8 days after infestation.

[4] = test system: Diabrotica balteata (Corn root worm); experiment: Diabrotica balteata (Corn root worm), maize sprouts sprayed, L2 larvae mortality; conditions: 96 h, application rate of 200 ppm, L2 larvae on maize sprouts, assessed 4 days after infestation, read-out: control (mortality)
Protocol: Diabrotica balteata (Corn root worm):
Maize sprouts placed onto an agar layer in 24-well microtiter plates were treated with aqueous test solutions prepared from 10,000 ppm DMSO stock solutions by spraying. After drying, the plates were infested with L2 larvae (6 to 10 per well). The samples were assessed for mortality 4 days after infestation.

[5] = test system: Myzus persicae (Green peach aphid); experiment: Myzus persicae (Green peach aphid): Feeding/Contact activity; conditions: foliar, 144 h, application rate of 200 ppm, aphid population of mixed ages on sunflower leaf discs, assessed 6 days after infestation, read-out: control (mortality)
Protocol: Myzus persicae (Green peach aphid): Feeding/Contact activity Sunflower leaf discs were placed onto agar in a 24-well microtiter plate and sprayed with aqueous test solutions prepared from 10,000 ppm DMSO stock solutions. After drying, the leaf discs were infested with an aphid population of mixed ages. The samples were assessed for mortality 6 days after infestation.

[6] = test system: Plutella xylostella (Diamond back moth); experiment: Plutella xylostella (Diamond back moth): Feeding/contact activity; conditions: 120 h, application rate of 200 ppm, L2 larvae on artificial diet, assessed 5 days after infestation, read-out: control (mortality)
Protocol: Plutella xylostella (Diamond back moth): Feeding/contact activity
24-well microtiter plates with artificial diet were treated with aqueous test solutions prepared from 10,000 ppm DMSO stock solutions by pipetting. After drying, the plates were infested with L2 larvae (10 to 15 per well). The samples were assessed for mortality 5 days after infestation.

[7] = test system: Euschistus heros (Neotropical Brown Stink Bug); experiment: Euschistus heros (Neotropical Brown Stink Bug): Feeding/contact activity; conditions: 120 h, application rate of 200 ppm, N2 nymphs on soybean leaves, assessed 5 days after infestation, read-out: control (mortality)
Protocol: Euschistus heros (Neotropical Brown Stink Bug): Feeding/contact activity Soybean leaves on agar in 24-well microtiter plates were sprayed with aqueous test solutions prepared from 10,000 ppm DMSO stock solutions. After drying the leaves were infested with N2 nymphs. The samples were assessed for mortality 5 days after infestation.

Measured: mortality at 200 ppm

Cn1c(C(F)(C(F)(F)F)C(F)(F)F)cc(Cl)c1-n1cc(-c2ccc(Cl)c(C(=O)NC3(C#N)CC3)c2)cn1 [Compound 9, 2-chloro-5-[1-[3-chloro-1-methyl-5-[1,2,2,2-tetrafluoro-1-(trifluoromethyl)ethyl]pyrrol-2-yl]pyrazol-4-yl]-N-(1-cyanocyclopropyl)benzamide]
≥ 80%: all assays above

Cn1c(C(F)(C(F)(F)F)C(F)(F)F)cc(C#N)c1-n1cc(-c2ccc(Cl)c(C(=O)NC3(C#N)CC3)c2)cn1 [Compound 10, 2-chloro-N-(1-cyanocyclopropyl)-5-[1-[3-cyano-1-methyl-5-[1,2,2,2-tetrafluoro-1-(trifluoromethyl)ethyl]pyrrol-2-yl]pyrazol-4-yl]benzamide]
≥ 80%: all assays above

N#CC1(NC(=O)c2cc(-c3cnn(-c4c(Br)cc(C(F)(C(F)(F)F)C(F)(F)F)n4CF)c3)ccc2Cl)CC1 [Compound 12, 5-[1-[3-bromo-1-(fluoromethyl)-5-[1,2,2,2-tetrafluoro-1-(trifluoromethyl)ethyl]pyrrol-2-yl]pyrazol-4-yl]-2-chloro-N-(1-cyanocyclopropyl)benzamide]
≥ 80%: all assays above

CCN(C(=O)c1cc(-c2cnn(-c3c(Br)cc(C(F)(C(F)(F)F)C(F)(F)F)n3C)c2)ccc1Cl)C1(C#N)CC1 [Compound 20, 5-[1-[3-bromo-1-methyl-5-[1,2,2,2-tetrafluoro-1-(trifluoromethyl)ethyl]pyrrol-2-yl]pyrazol-4-yl]-2-chloro-N-(1-cyanocyclopropyl)-N-ethyl-benzamide]
≥ 80%: all assays above

CN(C(=O)c1cc(-c2cnn(-c3c(Br)cc(C(F)(C(F)(F)F)C(F)(F)F)n3C)c2)ccc1Cl)C1(C#N)CC1 [Compound 21, 5-[1-[3-bromo-1-methyl-5-[1,2,2,2-tetrafluoro-1-(trifluoromethyl)ethyl]pyrrol-2-yl]pyrazol-4-yl]-2-chloro-N-(1-cyanocyclopropyl)-N-methyl-benzamide]
≥ 80%: all assays above

CC(C)n1c(C(F)(C(F)(F)F)C(F)(F)F)cc(Br)c1-n1cc(-c2ccc(Cl)c(C(=O)NC3(C#N)CC3)c2)cn1 [Compound 24, 5-[1-[3-bromo-1-isopropyl-5-[1,2,2,2-tetrafluoro-1-(trifluoromethyl)ethyl]pyrrol-2-yl]pyrazol-4-yl]-2-chloro-N-(1-cyanocyclopropyl)benzamide]
≥ 80%: all assays above

From US11459318B2, “Pesticidally active pyrrole derivatives” (Syngenta Participations AG, priority 2017, dated 2022)
